Molecular target: SARS-CoV-2 Papain-Like Protease (PLpro) (Severe acute respiratory syndrome coronavirus 2 (2019-nCoV) (SARS-CoV-2), UniProt P0DTD1)
Assay: biochemical
Conditions: PLpro IC50, PLpro enzymatic fluorescence assay; class symbols

With `Cc1ccc(OC[C@@H]2CCN2C)cc1C(=O)NC1(c2cc3ccccc3c3ccccc23)CC1` [Compound 569, (S)-2-Methyl-5-((1-methylazetidin-2-yl)methoxy)-N-(1-(phenanthren-9-yl)cyclopropyl)benzamide] the IC50 was greater than 5000 nM.

Same assay, conditions: PLpro enzymatic fluorescence assay; class symbols; read-out: PLpro IC50

`COc1cc(C2(NC(=O)c3cc(OC[C@H]4C[C@H](F)CN4)ccc3C)CC2)c2cccnc2c1` [Compound 556, 5-(((2R,4S)-4-Fluoropyrrolidin-2-yl)methoxy)-N-(1-(7-methoxyquinolin-5-yl)cyclopropyl)-2-methylbenzamide] and `COc1cc(C2(NC(=O)c3cc(OC[C@H]4C[C@H](F)CN4C)ccc3C)CC2)c2cccnc2c1` [Compound 557, 5-(((2R,4S)-4-Fluoro-1-methylpyrrolidin-2-yl)methoxy)-N-(1-(7-methoxyquinolin-5-yl)cyclopropyl)-2-methylbenzamide] cannot be ordered by IC50: less than 100 nM for the first, less than 100 nM for the second.

`COc1cc(C2(NC(=O)c3cc(OC[C@H]4CCN4C)ccc3C)CC2)c2cccnc2c1` [Compound 558, (R)-N-(1-(7-Methoxyquinolin-5-yl)cyclopropyl)-2-methyl-5-((1-methylazetidin-2-yl)methoxy)benzamide] and `COCCOc1cc(C2(NC(=O)c3cc(OC[C@@H]4CCN4C)ccc3C)CC2)c2cccnc2c1` [Compound 591, (S)-N-(1-(7-(2-Methoxyethoxy)quinolin-5-yl)cyclopropyl)-2-methyl-5-((1-methylazetidin-2-yl)methoxy)benzamide] cannot be ordered by IC50: less than 100 nM for the first, less than 100 nM for the second.

`COc1cc(C2(NC(=O)c3cc(OCC45CCCN4CCC5)ccc3C)CC2)c2cccnc2c1` [Compound 559, 5-((Hexahydro-1H-pyrrolizin-7a-yl)methoxy)-N-(1-(7-methoxyquinolin-5-yl)cyclopropyl)-2-methylbenzamide] and `COc1cc(C2(NC(=O)c3cc(OC[C@@]45CCCN4C[C@H](F)C5)ccc3C)CC2)c2cccnc2c1` [Compound 596, 5-(((2R,7aS)-2-Fluorohexahydro-1H-pyrrolizin-7a-yl)methoxy)-N-(1-(7-methoxyquinolin-5-yl)cyclopropyl)-2-methylbenzamide] cannot be ordered by IC50: less than 100 nM for the first, less than 100 nM for the second.

First: COc1cc(C2(NC(=O)c3cc(OCc4ccccn4)ccc3C)CC2)c2cccnc2c1 [Compound 562, N-(1-(7-Methoxyquinolin-5-yl)cyclopropyl)-2-methyl-5-(pyridin-2-ylmethoxy)benzamide]
Second: CN[C@H](C)COc1ccc(C)c(C(=O)NC2(c3cc(OC)cc4ncccc34)CC2)c1 [Compound 573, (R)-N-(1-(7-Methoxyquinolin-5-yl)cyclopropyl)-2-methyl-5-(2-(methylamino)propoxy)benzamide]
The IC50 of the first is higher: 100 to 1000 nM for the first, less than 100 nM for the second. The second is the more potent here.

`COc1cc(C2(NC(=O)c3cc(OC[C@@H]4CCN4C)ccc3C)COC2)c2ccccc2c1` [Compound 566] and `Cc1ccc(OC[C@@H]2CCN2C)cc1C(=O)NC1(c2cc(Oc3ccccc3)cc3ncccc23)CC1` [Compound 592, (S)-2-Methyl-5-((1-methylazetidin-2-yl)methoxy)-N-(1-(7-phenoxyquinolin-5-yl)cyclopropyl)benzamide] cannot be ordered by IC50: less than 100 nM for the first, less than 100 nM for the second.

`COc1cc(C2(NC(=O)c3cc(OC[C@@H]4CCN4CCF)ccc3C)CC2)c2cccnc2c1` [Compound 567, (S)-5-((1-(2-Fluoroethyl)azetidin-2-yl)methoxy)-N-(1-(7-methoxyquinolin-5-yl)cyclopropyl)-2-methylbenzamide] and `Cc1ccc(OC[C@@H]2CCN2C)cc1C(=O)NC1(c2cc(OC(F)(F)F)cc3ncccc23)CC1` [Compound 579, (S)-2-Methyl-5-((1-methylazetidin-2-yl)methoxy)-N-(1-(7-(trifluoromethoxy)quinolin-5-yl)cyclopropyl)benzamide] cannot be ordered by IC50: less than 100 nM for the first, less than 100 nM for the second.

`C=Cc1cc(C2(NC(=O)c3cc(OC[C@@H]4CCN4C)ccc3C)CC2)c2cccnc2c1` [Compound 570, (S)-2-Methyl-5-((1-methylazetidin-2-yl)methoxy)-N-(1-(7-vinylquinolin-5-yl)cyclopropyl)benzamide] and `Cc1ccc(OC[C@@H]2CCN2C)cc1C(=O)NC1(c2cc(-c3nccs3)cc3ncccc23)CC1` [Compound 590, (S)-2-Methyl-5-((1-methylazetidin-2-yl)methoxy)-N-(1-(7-(thiazol-2-yl)quinolin-5-yl)cyclopropyl)benzamide] cannot be ordered by IC50: less than 100 nM for the first, less than 100 nM for the second.

`COc1cc(C2(NC(=O)c3cc(OCCN(C)CCF)ccc3C)CC2)c2cccnc2c1` [Compound 571, 5-(2-((2-Fluoroethyl)(methyl)amino)ethoxy)-N-(1-(7-methoxyquinolin-5-yl)cyclopropyl)-2-methylbenzamide] and `COc1cc(C2(NC(=O)c3cc(OCC(N)C(C)C)ccc3C)CC2)c2cccnc2c1` (stereo not drawn) [Compound 572, 5-(2-Amino-3-methylbutoxy)-N-(1-(7-methoxyquinolin-5-yl)cyclopropyl)-2-methylbenzamide] cannot be ordered by IC50: less than 100 nM for the first, less than 100 nM for the second.

`Cc1ccc(OC[C@@H]2CCN2C)cc1C(=O)NC1(c2cc(-c3ccnn3C)cc3ncccc23)CC1` [Compound 578, (S)-2-Methyl-N-(1-(7-(1-methyl-1H-pyrazol-5-yl)quinolin-5-yl)cyclopropyl)-5-((1-methylazetidin-2-yl)methoxy)benzamide] and `Cc1ccc(OC[C@@H]2CCN2C)cc1C(=O)NC1(c2cc(-c3ccn(C)n3)cc3ncccc23)CC1` [Compound 582, (S)-2-Methyl-N-(1-(7-(1-methyl-1H-pyrazol-3-yl)quinolin-5-yl)cyclopropyl)-5-((1-methylazetidin-2-yl)methoxy)benzamide] cannot be ordered by IC50: less than 100 nM for the first, less than 100 nM for the second.

`COc1cc(C(C)N2CCC(C(=O)NCc3cccc(F)c3)CC2)c2cccnc2c1` (stereo not drawn) [Compound 593, N-(3-Fluorobenzyl)-1-(1-(7-methoxyquinolin-5-yl)ethyl)piperidine-4-carboxamide] and `CC(c1cc(-c2cccs2)cc2ccccc12)N1CCC(C(=O)NCc2cccc(F)c2)CC1` (stereo not drawn) [Compound 599, N-(3-Fluorobenzyl)-1-(1-(3-(thiophen-2-yl)naphthalen-1-yl)ethyl)piperidine-4-carboxamide] fall in the same range of IC50: 1000 to 5000 nM for the first, 1000 to 5000 nM for the second.

`Cc1ccc(OC[C@@H]2CCN2C)cc1C(=O)NC1(c2cc(-c3ccccc3)cc3ncccc23)CC1` [Compound 594, (S)-2-Methyl-5-((1-methylazetidin-2-yl)methoxy)-N-(1-(7-phenylquinolin-5-yl)cyclopropyl)benzamide] gave an IC50 of less than 100 nM.

Same assay, conditions: SARS-CoV-2 PLpro enzymatic fluorescence assay; read-out: PLpro IC50

`COc1cc(C2(NC(=O)c3cc(OC[C@@H]4CCN4C)ccc3C)CC2)c2ccccc2n1` [Compound 555, (S)-N-(1-(2-Methoxyquinolin-4-yl)cyclopropyl)-2-methyl-5-((1-methylazetidin-2-yl)methoxy)benzamide] and `Cc1ccc(OC[C@@H]2CCN2C)cc1C(=O)NC1(c2cc(O)nc3ccccc23)CC1` [Compound 565, (S)-N-(1-(2-Hydroxyquinolin-4-yl)cyclopropyl)-2-methyl-5-((1-methylazetidin-2-yl)methoxy)benzamide] cannot be ordered by IC50: less than 100 nM for the first, less than 100 nM for the second.

`CN[C@@H](C)COc1ccc(C)c(C(=O)NC2(c3cc(OC)cc4ncccc34)CC2)c1` [Compound 560, (S)-N-(1-(7-Methoxyquinolin-5-yl)cyclopropyl)-2-methyl-5-(2-(methylamino)propoxy)benzamide] and `Cc1ccc(OC[C@@H]2CCN2C)cc1C(=O)NC1(c2cc(OC(C)C)cc3ncccc23)CC1` [Compound 587, (S)-N-(1-(7-Isopropoxyquinolin-5-yl)cyclopropyl)-2-methyl-5-((1-methylazetidin-2-yl)methoxy)benzamide] cannot be ordered by IC50: less than 100 nM for the first, less than 100 nM for the second.

`COc1ccnc(COc2ccc(C)c(C(=O)NC3(c4cc(OC)cc5ncccc45)CC3)c2)c1` [Compound 561, 5-((4-Methoxypyridin-2-yl)methoxy)-N-(1-(7-methoxyquinolin-5-yl)cyclopropyl)-2-methylbenzamide] and `COc1cc(C2(NC(=O)c3cc(Oc4ccncc4)ccc3C)CC2)c2cccnc2c1` [Compound 584, N-(1-(7-Methoxyquinolin-5-yl)cyclopropyl)-2-methyl-5-(pyridin-4-yloxy)benzamide] fall in the same range of IC50: 100 to 1000 nM for the first, 100 to 1000 nM for the second.

`Cc1ccc(OC[C@@H]2CCN2C)cc1C(=O)NC1(c2cc(Br)cc3ncccc23)CC1` [Compound 563, (S)-N-(1-(7-Bromoquinolin-5-yl)cyclopropyl)-2-methyl-5-((1-methylazetidin-2-yl)methoxy)benzamide] and `Cc1cc(C2(NC(=O)c3cc(OC[C@@H]4CCN4C)ccc3C)CC2)c2cccnc2c1` [Compound 581, (S)-2-Methyl-5-((1-methylazetidin-2-yl)methoxy)-N-(1-(7-methylquinolin-5-yl)cyclopropyl)benzamide] cannot be ordered by IC50: less than 100 nM for the first, less than 100 nM for the second.

`C=C(C)c1cc(C2(NC(=O)c3cc(OC[C@@H]4CCN4C)ccc3C)CC2)c2cccnc2c1` [Compound 568, (S)-2-Methyl-5-((1-methylazetidin-2-yl)methoxy)-N-(1-(7-(prop-1-en-2-yl)quinolin-5-yl)cyclopropyl)benzamide] and `Cc1ccc(OC[C@@H]2CCN2C)cc1C(=O)NC1(c2cc(OCc3ccccc3)cc3ncccc23)CC1` [Compound 598, (S)-N-(1-(7-(Benzyloxy)quinolin-5-yl)cyclopropyl)-2-methyl-5-((1-methylazetidin-2-yl)methoxy)benzamide] cannot be ordered by IC50: less than 100 nM for the first, less than 100 nM for the second.

`Cc1ccc(OCCN(C)C)cc1NC(=O)C(C)c1cccc2ccccc12` (stereo not drawn) [Compound 577, N-(5-(2-(Dimethylamino)ethoxy)-2-methylphenyl)-2-(naphthalen-1-yl)propanamide] and `Cc1ccc(OCCN(C)C)cc1NC(=O)C1(c2cccc3ccccc23)CC1` [Compound 580, N-(5-(2-(Dimethylamino)ethoxy)-2-methylphenyl)-1-(naphthalen-1-yl)cyclopropane-1-carboxamide] cannot be ordered by IC50: greater than 5000 nM for the first, greater than 5000 nM for the second.

`Cc1ccc(OC[C@@H]2CCN2C)cc1C(=O)NC1(c2cc(Cl)nc3cc(F)ccc23)CC1` [Compound 586, (S)-N-(1-(2-Chloro-7-fluoroquinolin-4-yl)cyclopropyl)-2-methyl-5-((1-methylazetidin-2-yl)methoxy)benzamide] and `COc1cc(C2(NC(=O)c3cc(OC[C@@H]4CCN4C)c(N)cc3C)CC2)c2cccnc2c1` [Compound 597, (S)-4-Amino-N-(1-(7-methoxyquinolin-5-yl)cyclopropyl)-2-methyl-5-((1-methylazetidin-2-yl)methoxy)benzamide] cannot be ordered by IC50: less than 100 nM for the first, less than 100 nM for the second.

From patent publication US20250025443A1, “COMPOUNDS AND METHODS FOR TREATING CORONA VIRUSES” (CLEAR CREEK BIO, INC., priority 2021, published 2025)
